According to patent US12285034B2, “Human and non-human animal use of microbial anaplerotic oil” (HELIAE DEVELOPMENT, LLC, priority 2017, dated 2025):
Where “and” joins values, the source holds several entries; their conditions need not be identical. Identical values can stand only once. Like-named read-outs stand apart in the source and are kept apart here.

Tests used:
[1] = system: Aurantiochytrium acetophilum HS399; assay: Growth on propionate as sole carbon source (Example 9); format: cell-based; conditions: 10 g/L, pH 7
Text: FIG. 35 is a graphical representation of one implementation that illustrates results 3500 of growth of A. acetophilum HS399 with different carbon sources.

[2] = system: Aurantiochytrium acetophilum HS399
Description: The cultures are incubated in an orbital shaker at 180 rpm and 27° C.
Respective Erlenmeyer flasks contain 100 mL of a medium supplemented with (g/L): dextrose (100), ammonium acetate (4.6), NaCl (12.5), MgSO4 7H2O (2.5), KH2PO4 (0.5), KCl (0.5) and CaCl2 (0.1). This medium also contains trace element solution (5 ml/L) and vitamin solution (1 ml/L). The trace element solution contains (g/L): EDTA di-sodium salt (6), FeCl3 6H2O (0.29), […] (6.84), MnCl2 4H2O (0.86), ZnCl2 (0.06), CoCl2 6H2O (0.026), NiSO4 6H2O (0.052), CuSO4 5H2O (0.002), Na2MoO4H2O (0.005). The vitamin solution contains (mg/L): thiamine (100), biotin (0.5) and cyanocobalamin (0.5). All culture materials can be autoclaved (e.g., 121° C., 15 min) and the media can be filter sterilized before use. […] Daily samples are collected to analyze the cell dry weight, residual glucose, culture pH (see FIG. 9), and lipid and fatty acid composition of the cultures. Cell dry weights (CDW) can be analyzed by filtration (e.g., 0.2 μm filter media) using a vacuum, and washed with a solution of ammonium bicarbonate. Residual glucose can be analyzed using colorimetric methods based on glucose […] activity. Biomass for lipid analysis is centrifuged and washed using purified water. The washed biomass is freeze dried. Total lipids are analyzed using Folch method (AOAC 996.06) and the FAMES re analyzed by gas chromatography using nonadecanoic (C19:0) acid as an internal standard.

[3] = system: Aurantiochytrium acetophilum HS399; remark: listed apart in the source
Description: In one implementation, a 250 mL Erlenmeyer flask can be used to cultivate A. acetophilum HS399.
In one implementation, a 250 mL Erlenmeyer flask can be used to cultivate A. acetophilum HS399. […] Cell dry weights may be analyzed using a filtration method. Ammonia can be measured using a Cedex bio-analyzer (Roche). […] The fatty acid profile of the biomass can be analyzed using gas chromatography.

[4] = system: Aurantiochytrium acetophilum HS399; remark: listed apart in the source
Description: Respective Erlenmeyer flasks (250 mL) can be inoculated (1% v/v) in triplicates with a 24 hour (h) old culture of A. acetophilum HS399 and incubated in an orbital shaker at 180 rpm and 27° C.
In this implementation, the respective Erlenmeyer flasks contain 100 mL of a medium supplemented with (g/L): dextrose (50), ammonium acetate (2.3), NaCl (12.5), MgSO4 7H2O (2.5), KH2PO4 (0.5), KCl (0.5) and CaCl2 (0.1). This medium also contains trace element solution (5 ml/L) and vitamin solution (1 ml/L). The trace element solution contains (g/L): EDTA di-sodium salt (6), FeCl3 6H2O (0.29), […] (6.84), MnCl2 4H2O (0.86), ZnCl2 (0.06), CoCl2 6H2O (0.026), NiSO4 6H2O (0.052), CuSO4 5H2O (0.002), Na2MoO4H2O (0.005). The vitamin solution contains (mg/L): thiamine (100), biotin (0.5) and cyanocobalamin (0.5). All culture materials can be autoclaved (121° C., 15 min) and media can be filter sterilized before use. […] Daily samples can be collected to analyze the cell dry weight, residual glucose, culture pH, lipid and fatty acid composition of the cultures. Cell dry weights are analyzed by vacuum filtration (0.2 μm) and washed with a solution of ammonium bicarbonate. Residual glucose is analyzed using a colorimetric method based on glucose […] activity. Biomass for lipid analysis can be centrifuged and washed using purified water. The washed biomass can be freeze dried. Total lipids are analyzed using the Folch method (AOAC 996.06) and the FAMES are analyzed by gas chromatography using nonadecanoic (C19:0) acid as an internal standard.

[5] = system: Aurantiochytrium acetophilum HS399; assay: Propionic acid toxicity lethal threshold (Example 8); format: cell-based; conditions: for lethal threshold, Propionate Treatment (initial propionate): initial propionate approach, chronic, metric CDW, pH 6.4
[6] = 116 h, propionate 3 + 3 + 3 g/L
[7] = propionate 3 + 3 + 3 g/L (166 h)

CCC(=O)O [Propionate, propionic acid]
growth on propionate as sole carbon source [1]: did not support growth above that of the starved treatment
OCFA ([2]; 68 h, propionate 3 + 3 + 3 g/L): 60.6 ± 0.4 % TFA
Total Fatty Acids ([2]; 68 h, propionate 3 + 3 + 3 g/L): 40.7 ± 1.7 % DW
OCFA ([2]; 68 h, propionate 3 + 3 g/L): 60.9 ± 0.6 % TFA
Total Fatty Acids ([2]; 68 h, propionate 3 + 3 g/L): 44.5 ± 4.5 % DW
OCFA ([2]; 68 h, propionate 3 g/L): 52.9 ± 7.3 % TFA
Total Fatty Acids ([2]; 68 h, propionate 3 g/L): 45.1 ± 3.0 % DW
growth (cell dry weight) ([2]; 70 h, fed batching of 9 g/L propionate): ~15 g/L
Total Fatty Acids ([2]; 96 h, propionate 3 + 3 + 3 g/L): 56.3 ± 1.2 % DW
Total Lipids ([2]; 96 h, propionate 3 + 3 + 3 g/L): 70.0 ± 1.0 % DW
OCFA ([2]; 96 h, propionate 3 + 3 + 3 g/L (P9)): 62.9 ± 0.2 % TFA
OCFA ([2]; 96 h, propionate 3 + 3 + 3 g/L (P9), listed as propionate): 62.4 % TFA
Total Fatty Acids ([2]; 96 h, propionate 3 + 3 g/L): 62.5 ± 0.3 % DW
Total Lipids ([2]; 96 h, propionate 3 + 3 g/L): 73.3 ± 1.5 % DW
OCFA ([2]; 96 h, propionate 3 + 3 g/L (P6)): 62.8 ± 0.2 % TFA
OCFA ([2]; 96 h, propionate 3 + 3 g/L (P6), listed as propionate): 62.4 % TFA
OCFA ([2]; 96 h, propionate 3 g/L): 24.0 ± 1.0 % TFA
Total Fatty Acids ([2]; 96 h, propionate 3 g/L): 66.8 ± 4.8 % DW
Total Lipids ([2]; 96 h, propionate 3 g/L): 81.0 ± 1.0 % DW
OCFA [2, 6]: 60.8 ± 0.2 % TFA
Total Fatty Acids [2, 6]: 63.1 ± 2.0 % DW
Total Lipids [2, 6]: 74.0 ± 1.0 % DW
OCFA ([2]; 116 h, propionate 3 + 3 + 3 g/L, listed as propionic acid): 60.4 % TFA
OCFA ([2]; 116 h, propionate 3 + 3 g/L): 57.5 ± 1.4 % TFA
Total Fatty Acids ([2]; 116 h, propionate 3 + 3 g/L): 70.8 ± 0.6 % DW
Total Lipids ([2]; 116 h, propionate 3 + 3 g/L): 77.7 ± 0.6 % DW
OCFA ([2]; 116 h, propionate 3 g/L): 22.8 ± 0.8 % TFA
Total Fatty Acids ([2]; 116 h, propionate 3 g/L): 71.7 ± 4.3 % DW
Total Lipids ([2]; 116 h, propionate 3 g/L): 74.8 ± 0.3 % DW
non-lethal but growth inhibitory concentration ([2]; as low as, pH of 7): 1 g/L
OCFA Productivity [2, 7]: 2.56 ± 0.04 g/L/day
Propionate deposition [2, 7]: 39.5 ± 1.7%
OCFA Productivity ([2]; propionate 3 + 3 g/L (116 h)): 2.89 ± 0.06 g/L/day
Propionate deposition ([2]; propionate 3 + 3 g/L (116 h)): 65.0 ± 0.6%
OCFA Productivity ([2]; propionate 3 g/L (96 h)): 1.53 ± 0.02 g/L/day
Propionate deposition ([2]; propionate 3 g/L (96 h)): 57.0 ± 0.9%
OCFAs of total DW of algal product ([2]; three doses of 3 g/L, 60.4% OCFAs of the 63.1% TFA): 38.1%
Propionate deposition ([3]; 0 + 3 g/L fed in lipid phase): 58.8 ± 1.9%
Propionate deposition ([3]; 0 + 3 g/L fed in lipid phase, listed as propionate): 58.8%
Propionate deposition ([3]; 3 g/L fed in growth phase): 53.0 ± 1.0%
Propionate deposition ([3]; 3 g/L fed in growth phase, listed as propionate): 53%
OCFA Productivity [4]: 0.81 ± 0.06 g/L/day
concentration strongly inhibitory to growth [4]: 10000 µg/mL
growth inhibitory concentration [4]: 3 g/L
substantially lethal residual (extracellular) concentration ([4]; pH of 6): ~15 g/L
OCFA ([4]; propionate 10 g/L, 68 h): 63.1 ± 0.7 % TFA
Total Fatty Acids ([4]; propionate 10 g/L, 68 h): 42.8 ± 0.9 % DW
Total Lipids ([4]; propionate 10 g/L, 68 h): 55.3 ± 0.6 % DW
OCFA ([4]; propionate 10 g/L, 68 h, listed as propionate): 63 % TFA
Propionate deposition ([4]; propionate printed 1100 g/L): 6.9 ± 0.5%
lethal threshold, Propionate Treatment (initial propionate) ([5]; listed as Propionic acid): 20 g/L
lethal threshold, Propionate Treatment (initial propionate) ([5]; listed as propionate): 20 g/L and 30 g/L
lethal threshold, Propionate Treatment ([5]; pH drift approach, acute, metric OUR, pH 5.3): 2.3 ± 0.1 g/L
pH at which oxygen uptake rate dropped (tolerance limit) ([5]; residual propionate 2.3-2.4 g/L, pH ramp 7 to 4): 5.3
